Results taken from PubChem BioAssay AID1963837 (Molecular Pharmacology Branch, DTP, NCI, 2024).

The molecules below were run on 843126-344-R-J1-PDC complex spheroid viability (assay: Anticancer human tumor 843126-344-R-J1-PDC patient-derived melanoma cell line growth inhibition [POLQ]). Details: curve of first compound; second compound 0.0316 µM.
Summary of the method: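 Patient-derived tumour cells were co-cultured with HUVEC and mesenchymal stem cells as multicellular spheroids at 37 °C. They were treated with POLQ inhibitors (novobiocin, ART-558, RP6685) alone or combined with other agents. Top concentrations were at or near clinical Cmax (otherwise 10 microM; SN-38 at 1 microM), decreasing in half-log steps.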

First: CC1COCCN1c1cc(C2(S(C)(=N)=O)CC2)nc(-c2ccnc3[nH]ccc23)n1 (stereo unspecified) + Cc1cccc(N(C)C(=O)C2C(O)CCN2c2nc(C)cc(C(F)(F)F)c2C#N)c1
Second: CC1COCCN1c1cc(-c2ccnn2C)c2ccnc(-c3ccn[nH]3)c2n1 (stereo unspecified) + Nc1ccc(C#CCN(C(=O)Cc2ncc(C(F)(F)F)cc2C(F)(F)F)c2ccc(F)cc2)nn1
The IC50 of the first is higher: > 10 µM for the first, 0.943 µM for the second. The second is the more potent here.

`C=CCn1c(=O)c2cnc(Nc3ccc(N4CCN(C)CC4)cc3)nc2n1-c1cccc(C(C)(C)O)n1` + Cc1cccc(N(C)C(=O)C2C(O)CCN2c2nc(C)cc(C(F)(F)F)c2C#N)c1 and `C=CC(=O)N1CCN(c2nc(=O)n(-c3c(C)ccnc3C(C)C)c3nc(-c4c(O)cccc4F)c(F)cc23)C(C)C1` (stereo unspecified) + Cc1cccc(N(C)C(=O)C2C(O)CCN2c2nc(C)cc(C(F)(F)F)c2C#N)c1 cannot be ordered by IC50: > 1 µM for the first, > 10 µM for the second.

`CNCc1ccc(-c2[nH]c3cc(F)cc4c3c2CCNC4=O)cc1` + COC1C(OC(N)=O)C(O)C(Oc2ccc3c(O)c(NC(=O)c4ccc(O)c(CC=C(C)C)c4)c(=O)oc3c2C)OC1(C)C and `CC(C)n1c(=O)n(C)c2cnc3cc(F)c(-c4ccc(OCCCN5CCCCC5)nc4)cc3c21` + Cc1cccc(N(C)C(=O)C2C(O)CCN2c2nc(C)cc(C(F)(F)F)c2C#N)c1 cannot be ordered by IC50: > 10 µM for the first, > 10 µM for the second.

For `COc1cc2cc(C(=O)CCC(=O)O)sc2cc1OC` + Nc1ccc(C#CCN(C(=O)Cc2ncc(C(F)(F)F)cc2C(F)(F)F)c2ccc(F)cc2)nn1, the IC50 was > 10 µM.

Same assay, conditions: curve of first compound; second compound 0.1 µM

Going from `CC1COCCN1c1cc(C2(S(C)(=N)=O)CC2)nc(-c2ccnc3[nH]ccc23)n1` (stereo unspecified) + Cc1cccc(N(C)C(=O)C2C(O)CCN2c2nc(C)cc(C(F)(F)F)c2C#N)c1 to `CC1COCCN1c1cc(-c2ccnn2C)c2ccnc(-c3ccn[nH]3)c2n1` (stereo unspecified) + Nc1ccc(C#CCN(C(=O)Cc2ncc(C(F)(F)F)cc2C(F)(F)F)c2ccc(F)cc2)nn1, the IC50 falls from > 10 µM to 1.11 µM. The second is the more potent here.

`C=CCn1c(=O)c2cnc(Nc3ccc(N4CCN(C)CC4)cc3)nc2n1-c1cccc(C(C)(C)O)n1` + Cc1cccc(N(C)C(=O)C2C(O)CCN2c2nc(C)cc(C(F)(F)F)c2C#N)c1 and `C=CC(=O)N1CCN(c2nc(=O)n(-c3c(C)ccnc3C(C)C)c3nc(-c4c(O)cccc4F)c(F)cc23)C(C)C1` (stereo unspecified) + Cc1cccc(N(C)C(=O)C2C(O)CCN2c2nc(C)cc(C(F)(F)F)c2C#N)c1 cannot be ordered by IC50: > 1 µM for the first, > 10 µM for the second.

`CNCc1ccc(-c2[nH]c3cc(F)cc4c3c2CCNC4=O)cc1` + COC1C(OC(N)=O)C(O)C(Oc2ccc3c(O)c(NC(=O)c4ccc(O)c(CC=C(C)C)c4)c(=O)oc3c2C)OC1(C)C and `CC(C)n1c(=O)n(C)c2cnc3cc(F)c(-c4ccc(OCCCN5CCCCC5)nc4)cc3c21` + Cc1cccc(N(C)C(=O)C2C(O)CCN2c2nc(C)cc(C(F)(F)F)c2C#N)c1 cannot be ordered by IC50: > 10 µM for the first, > 10 µM for the second.

In the case of `COc1cc2cc(C(=O)CCC(=O)O)sc2cc1OC` + Nc1ccc(C#CCN(C(=O)Cc2ncc(C(F)(F)F)cc2C(F)(F)F)c2ccc(F)cc2)nn1, the IC50 is reported as > 10 µM.

Same assay, conditions: curve of first compound; second compound 0.316 µM

First: CC1COCCN1c1cc(C2(S(C)(=N)=O)CC2)nc(-c2ccnc3[nH]ccc23)n1 (stereo unspecified) + Cc1cccc(N(C)C(=O)C2C(O)CCN2c2nc(C)cc(C(F)(F)F)c2C#N)c1
Second: CC1COCCN1c1cc(-c2ccnn2C)c2ccnc(-c3ccn[nH]3)c2n1 (stereo unspecified) + Nc1ccc(C#CCN(C(=O)Cc2ncc(C(F)(F)F)cc2C(F)(F)F)c2ccc(F)cc2)nn1
The IC50 of the first is higher: > 10 µM for the first, 0.911 µM for the second.

`C=CCn1c(=O)c2cnc(Nc3ccc(N4CCN(C)CC4)cc3)nc2n1-c1cccc(C(C)(C)O)n1` + Cc1cccc(N(C)C(=O)C2C(O)CCN2c2nc(C)cc(C(F)(F)F)c2C#N)c1 and `C=CC(=O)N1CCN(c2nc(=O)n(-c3c(C)ccnc3C(C)C)c3nc(-c4c(O)cccc4F)c(F)cc23)C(C)C1` (stereo unspecified) + Cc1cccc(N(C)C(=O)C2C(O)CCN2c2nc(C)cc(C(F)(F)F)c2C#N)c1 cannot be ordered by IC50: > 1 µM for the first, > 10 µM for the second.

`CNCc1ccc(-c2[nH]c3cc(F)cc4c3c2CCNC4=O)cc1` + COC1C(OC(N)=O)C(O)C(Oc2ccc3c(O)c(NC(=O)c4ccc(O)c(CC=C(C)C)c4)c(=O)oc3c2C)OC1(C)C and `CC(C)n1c(=O)n(C)c2cnc3cc(F)c(-c4ccc(OCCCN5CCCCC5)nc4)cc3c21` + Cc1cccc(N(C)C(=O)C2C(O)CCN2c2nc(C)cc(C(F)(F)F)c2C#N)c1 cannot be ordered by IC50: > 10 µM for the first, > 10 µM for the second.

For `COc1cc2cc(C(=O)CCC(=O)O)sc2cc1OC` + Nc1ccc(C#CCN(C(=O)Cc2ncc(C(F)(F)F)cc2C(F)(F)F)c2ccc(F)cc2)nn1, the IC50 was > 10 µM.

Same assay, conditions: curve of first compound; second compound 1 µM

Going from `CC1COCCN1c1cc(C2(S(C)(=N)=O)CC2)nc(-c2ccnc3[nH]ccc23)n1` (stereo unspecified) + Cc1cccc(N(C)C(=O)C2C(O)CCN2c2nc(C)cc(C(F)(F)F)c2C#N)c1 to `CC1COCCN1c1cc(-c2ccnn2C)c2ccnc(-c3ccn[nH]3)c2n1` (stereo unspecified) + Nc1ccc(C#CCN(C(=O)Cc2ncc(C(F)(F)F)cc2C(F)(F)F)c2ccc(F)cc2)nn1, the IC50 falls from > 10 µM to 0.738 µM.

`C=CCn1c(=O)c2cnc(Nc3ccc(N4CCN(C)CC4)cc3)nc2n1-c1cccc(C(C)(C)O)n1` + Cc1cccc(N(C)C(=O)C2C(O)CCN2c2nc(C)cc(C(F)(F)F)c2C#N)c1 and `C=CC(=O)N1CCN(c2nc(=O)n(-c3c(C)ccnc3C(C)C)c3nc(-c4c(O)cccc4F)c(F)cc23)C(C)C1` (stereo unspecified) + Cc1cccc(N(C)C(=O)C2C(O)CCN2c2nc(C)cc(C(F)(F)F)c2C#N)c1 cannot be ordered by IC50: > 1 µM for the first, > 10 µM for the second.

`CNCc1ccc(-c2[nH]c3cc(F)cc4c3c2CCNC4=O)cc1` + COC1C(OC(N)=O)C(O)C(Oc2ccc3c(O)c(NC(=O)c4ccc(O)c(CC=C(C)C)c4)c(=O)oc3c2C)OC1(C)C and `CC(C)n1c(=O)n(C)c2cnc3cc(F)c(-c4ccc(OCCCN5CCCCC5)nc4)cc3c21` + Cc1cccc(N(C)C(=O)C2C(O)CCN2c2nc(C)cc(C(F)(F)F)c2C#N)c1 cannot be ordered by IC50: > 10 µM for the first, > 10 µM for the second.

`COc1cc2cc(C(=O)CCC(=O)O)sc2cc1OC` + Nc1ccc(C#CCN(C(=O)Cc2ncc(C(F)(F)F)cc2C(F)(F)F)c2ccc(F)cc2)nn1 was tested, and the IC50 was > 10 µM.

Same assay, conditions: curve of first compound; second compound 3.16 µM

Going from `CC1COCCN1c1cc(C2(S(C)(=N)=O)CC2)nc(-c2ccnc3[nH]ccc23)n1` (stereo unspecified) + Cc1cccc(N(C)C(=O)C2C(O)CCN2c2nc(C)cc(C(F)(F)F)c2C#N)c1 to `CC1COCCN1c1cc(-c2ccnn2C)c2ccnc(-c3ccn[nH]3)c2n1` (stereo unspecified) + Nc1ccc(C#CCN(C(=O)Cc2ncc(C(F)(F)F)cc2C(F)(F)F)c2ccc(F)cc2)nn1, the IC50 falls from > 10 µM to 0.661 µM. The second is the more potent here.

`C=CCn1c(=O)c2cnc(Nc3ccc(N4CCN(C)CC4)cc3)nc2n1-c1cccc(C(C)(C)O)n1` + Cc1cccc(N(C)C(=O)C2C(O)CCN2c2nc(C)cc(C(F)(F)F)c2C#N)c1 and `C=CC(=O)N1CCN(c2nc(=O)n(-c3c(C)ccnc3C(C)C)c3nc(-c4c(O)cccc4F)c(F)cc23)C(C)C1` (stereo unspecified) + Cc1cccc(N(C)C(=O)C2C(O)CCN2c2nc(C)cc(C(F)(F)F)c2C#N)c1 cannot be ordered by IC50: > 1 µM for the first, > 10 µM for the second.

`CNCc1ccc(-c2[nH]c3cc(F)cc4c3c2CCNC4=O)cc1` + COC1C(OC(N)=O)C(O)C(Oc2ccc3c(O)c(NC(=O)c4ccc(O)c(CC=C(C)C)c4)c(=O)oc3c2C)OC1(C)C and `CC(C)n1c(=O)n(C)c2cnc3cc(F)c(-c4ccc(OCCCN5CCCCC5)nc4)cc3c21` + Cc1cccc(N(C)C(=O)C2C(O)CCN2c2nc(C)cc(C(F)(F)F)c2C#N)c1 cannot be ordered by IC50: > 10 µM for the first, > 10 µM for the second.

With `COc1cc2cc(C(=O)CCC(=O)O)sc2cc1OC` + Nc1ccc(C#CCN(C(=O)Cc2ncc(C(F)(F)F)cc2C(F)(F)F)c2ccc(F)cc2)nn1 the IC50 was > 10 µM.

Same assay, conditions: curve of first compound; second compound 10 µM

With `CC1COCCN1c1cc(C2(S(C)(=N)=O)CC2)nc(-c2ccnc3[nH]ccc23)n1` (stereo unspecified) + Cc1cccc(N(C)C(=O)C2C(O)CCN2c2nc(C)cc(C(F)(F)F)c2C#N)c1 the IC50 was > 10 µM.
